According to the supplement of paper PMC4862054:

Assays:
Settings in all cases: incubation time: 72 h
[1] = system: Hs578T; experiment: normalised response (% of control), CellTiter-Glo; higher = more viable cells (100 = DMSO, 0 = benzethonium chloride kill control)
How it was run: (§1)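 Compound was dispensed into 384-well plates at 5 concentrations in 10-fold steps spanning a 10,000-fold range specific to that compound. Breast cancer cell lines were added as 20 µl suspension and left for 72 h before CellTox Green fluorescence (485/520 nm) and then CellTiter-Glo luminescence, read after 10 min at room temperature. Each reported value is the normalised signal at one concentration, with 0.1 % DMSO set at 100 and a positive kill control at 0 on each plate.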

[2] = system: CAL-120; experiment: as above
How it was run: as §1

[3] = system: MDA-MB-436; experiment: as above
How it was run: as §1

[4] = system: HCC1599; experiment: as above
How it was run: as §1

[5] = system: HCC1937; experiment: as above
How it was run: as §1

[6] = system: CAL-51; experiment: as above
How it was run: as §1

[7] = system: MFM-223; experiment: as above
How it was run: as §1

[8] = system: BT-474; experiment: as above
How it was run: as §1

[9] = system: CAL-148; experiment: as above
How it was run: as §1

[10] = system: MDA-MB-468; experiment: as above
How it was run: as §1

[11] = system: MDA-MB-453; experiment: as above
How it was run: as §1

[12] = system: HCC1143; experiment: as above
How it was run: as §1

[13] = system: SK-BR-3; experiment: as above
How it was run: as §1

[14] = system: BT-549; experiment: as above
How it was run: as §1

[15] = system: DU-4475; experiment: as above
How it was run: as §1

[16] = system: MDA-MB-231; experiment: as above
How it was run: as §1

[17] = system: HDQ-P1; experiment: as above
How it was run: as §1

[18] = system: CAL-51; experiment: normalised viability (% of control), CellTiter-Blue; higher = more viable cells (about 100 = DMSO control)
How it was run: (§2)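 Breast cancer cell lines were treated for 72 h in 384-well format and measured by CellTiter-Blue fluorescence at 560/590 nm. Results were normalised per plate to vehicle (100) and a positive kill control (0). The entry is normalised viability at a single listed concentration of the series.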

[19] = system: CAL-148; experiment: as above
How it was run: as §2

[20] = system: CAL-85-1; experiment: as above
How it was run: as §2

[21] = system: MDA-MB-453; experiment: as above
How it was run: as §2

[22] = system: DU-4475; experiment: as above
How it was run: as §2

[23] = system: HDQ-P1; experiment: as above
How it was run: as §2

| SMILES | normalised response [1] | normalised response [2] | normalised response [3] | normalised response [4] | normalised response [5] | normalised response [6] | normalised response [7] | normalised response [8] | normalised response [9] | normalised response [10] | normalised response [11] | normalised response [12] | normalised response [13] | normalised response [14] | normalised response [15] | normalised response [16] | normalised response [17] | normalised viability [18] | normalised viability [19] | normalised viability [20] | normalised viability [21] | normalised viability [22] | normalised viability [23] |
| --- | --- | --- | --- | --- | --- | --- | --- | --- | --- | --- | --- | --- | --- | --- | --- | --- | --- | --- | --- | --- | --- | --- | --- |
| COc1cc2c(cc1O)CC[C@@H]1[C@@H]2CC[C@]2(C)[C@@H](O)CC[C@@H]12 [2-methoxyestradiol] (10000 nM) | 25.4% | 62.6% | 44.7% | 31.6% | 68.5% | 31.1% | 54.4% | 58.1% | 39.8% | 34.4% | 59.7% | 49.3% | 17.1% | 48.8% | 42.2% | 51.9% | 73.7% | 20.6% | 58.1% | 57.5% | 36.6% | 28.7% | 47.3% |
| CC1(C)CNc2cc(NC(=O)c3cccnc3NCc3ccncc3)ccc21 [Motesanib] (10000 nM) | 91.8% | 103% | 95% | 107% | 97.8% | 122% | 88.1% | 90.9% | 86.9% | 87.6% | 91.6% | 94.8% | 86.3% | 97% | 98.6% | 93.5% | 92.5% | 97.2% | 91.8% | 78.2% | 69.4% | 88.6% | 92.2% |
| Cn1cnc2c(F)c(Nc3ccc(Br)cc3Cl)c(C(=O)NOCCO)cc21 [Selumetinib] (10000 nM) | 76.4% | 66.8% | 85.4% | 72.7% | 76.3% | 106% | 67.9% | 55.5% | 76.1% | 69.9% | 93.8% | 76.6% | 92% | 84.1% | 0.53% | 62.4% | 56.3% | 80.3% | 89.9% | 49.6% | 75.8% | 0.33% | 65.7% |
| Oc1ncnc2[nH]ncc12 [Allopurinol] (10000 nM) | 102% | 99.1% | 101% | 102% | 102% | 131% | 103% | 97.9% | 106% | 97.9% | 111% | 104% | 114% | 102% | 99.7% | 103% | 95.1% | 92.5% | 118% | 109% | 108% | 115% | 99.2% |
| Nc1nc2[nH]cnc2c(=S)[nH]1 [Thioguanine] (10000 nM) | 33.2% | 37% | 31.3% | 28.2% | 35.8% | 28.6% | 72.9% | 40.8% | 68.2% | 48.9% | 79% | 66.7% | 62.1% | 48.5% | 24.1% | 33.4% | 31.8% | 54.2% | 42% | 61.8% | 73.1% | 73.8% | 58.5% |
| O=NN(CCCl)C(=O)NCCCl [Carmustine] (10000 nM) | 101% | 96.2% | 96.7% | 104% | 99.6% | 116% | 94.4% | 91.5% | 100% | 97.3% | 87.3% | 106% | 95.2% | 110% | 96.5% | 99.9% | 96.1% | 98.2% | 109% | 95.6% | 115% | 105% | 114% |
| CC(C)(C)c1cnc(CSc2cnc(NC(=O)C3CCNCC3)s2)o1 [SNS-032] (10000 nM) | 8.34% | 43.3% | 18.2% | 7.5% | 38.6% | 16.7% | 32% | 31.8% | 77.1% | 6.47% | 56.4% | 15.1% | 4.26% | 5.15% | 10.3% | 8.77% | 24.3% | 4.67% | 21.8% | 2.06% | 18.6% | -0.36% | 12.7% |
